Tests used:
[1] = Emission spectra of the probe itself; format: physicochemical; conditions: Hitachi F2500, 700 V
Experimental: Compound 10 obtained in Example 4 was dissolved in DMF to a concentration of 10 mM, and then the solution was diluted to 10 μM by 0.1 M phosphate buffer (pH 7.4). The fluorescence spectrum of the 10 μM solution of Compound 10 was measured using a Hitachi F2500 fluorescence spectrometer and the photomultiplier voltage was 700 V. The slit width was 2.5 nm for both excitation and emission. The measurement was carried out at an excitation wavelength of 520 nm. The results shown in FIG. 1 indicate that Compound 10 itself is non-fluorescent.
Compound 12 obtained in Example 5 was dissolved in DMF to a concentration of 1 mM, and then the solution was diluted to 1 μM by 0.1 M phosphate buffer (pH 7.4). The fluorescence spectrum of the 1 μM solution of Compound 12 was measured using a Hitachi F2500 fluorescence spectrometer and the photomultiplier voltage was 700 V. The slit width was 2.5 nm for both excitation and emission. The measurement was carried out at an excitation wavelength of 515 nm. The results shown in FIG. 4 indicate that Compound 12 itself is non-fluorescent.
Compound 14 obtained in Example 6 was dissolved in DMF to a concentration of 1 mM, and then the solution was diluted to 1 μM by 0.1 M phosphate buffer (pH 7.4). The fluorescence spectrum of the 1 μM solution of Compound 14 was measured using a Hitachi F2500 fluorescence spectrometer and the photomultiplier voltage was 700 V. The slit width was 2.5 nm for both excitation and emission. The measurement was carried out at an excitation wavelength of 515 nm. The results shown in FIG. 6 indicate that Compound 14 itself is non-fluorescent.
Compound 30 obtained in Example 7 was dissolved in DMF to a concentration of 10 mM, and then the solution was diluted to 10 μM by 0.1 M phosphate buffer (pH 7.4). The fluorescence spectrum of the 10 μM solution of Compound 30 was measured using a Hitachi F7000 fluorescence spectrometer and the photomultiplier voltage was 900 V. The slit width was 2.5 nm for both excitation and emission. The measurement was carried out at an excitation wavelength of 520 nm.

[2] = Detection of peroxynitrite: fluorescence spectra after addition of peroxynitrite
Experimental: Compound 10 obtained in Example 4 was dissolved in DMF to a concentration of 10 mM, and then the solution was diluted to 10μM by 0.1 M potassium phosphate buffer (pH 7.4). Peroxynitrite solution in 0.1 M NaOH was prepared by the method of Keith and Powell (Keith, W. G. & Powell, R. E.; Kinetics of decomposition of peroxynitrous acid; J. Chem. Soc. A, 1969, 1, 90), and its concentration in the stock solutions used was estimated by using an extinction coefficient of 1670 cm^−1 (mol/L)^−1 at 302 nm (Hughes and Nicklin; The chemistry of pernitrites. Part I. Kinetics of decomposition of pernitrious acid; J. Chem. Soc. A, 1968, 2, 450-452). Peroxynitrite stock solution was added into the solution of Compound 10 to provide various final concentrations, like 0, 2, 6, 10, 20, 30, 50 100, and 200 μM. Fluorescence spectra of the solutions were measured after 5 minutes under the same conditions as mentioned above.
Compound 12 obtained in Example 5 was dissolved in DMF to a concentration of 1 mM, and then the solution was diluted to 1 μM by 0.1 M potassium phosphate buffer (pH 7.4). Peroxynitrite solution in 0.1 M NaOH was prepared by the method of Keith and Powell (Keith, W. G. & Powell, R. E.; Kinetics of decomposition of peroxynitrous acid; J. Chem. Soc. A, 1969, 1, 90), and its concentration in the stock solutions used was estimated by using an extinction coefficient of 1670 cm^−1 (mol/L)^−1 at 302 nm (Hughes and Nicklin; The chemistry of pernitrites. Part I. Kinetics of decomposition of pernitrious acid; J. Chem. Soc. A, 1968, 2, 450-452). Peroxynitrite stock solution was added into the solution of Compound 12 to provide various final concentrations, like 0, 1, 2, 3, 4, 5, 6, and 7 μM. Fluorescence spectra of the solutions were measured after 5 minutes under the same conditions as mentioned above.
Compound 30 obtained in Example 7 was dissolved in DMF to a concentration of 10 mM, and then the solution was diluted to 10 μM by 0.1 M potassium phosphate buffer (pH 7.4). Peroxynitrite solution in 0.1 M NaOH was prepared by the method of Keith and Powell (Keith, W. G. & Powell, R. E.; Kinetics of decomposition of peroxynitrous acid; J. Chem. Soc. A, 1969, 1, 90), and its concentration in the stock solutions used was estimated by using an extinction coefficient of 1670 cm^−1 (mol/L)^−1 at 302 nm (Hughes and Nicklin; The chemistry of pernitrites. Part I. Kinetics of decomposition of pernitrious acid; J. Chem. Soc. A, 1968, 2, 450-452). Peroxynitrite stock solution was added into the solution of Compound 30 to provide various final concentrations. Fluorescence spectra of the solutions were measured after 5 minutes under the same conditions as mentioned above.

| SMILES | fluorescence of the probe itself ([1]; 10 μM, 0.1 M phosphate buffer pH 7.4, excitation 520 nm) | fluorescence intensity at 541 nm with increasing concentration of peroxynitrite ([2]; 10 μM probe, 0.1 M potassium phosphate buffer pH 7.4) | fluorescence intensity after the addition of peroxynitrite ([2]; 10 μM probe, 0.1 M potassium phosphate buffer pH 7.4, measured after 5 minutes, excitation 520 nm) | fluorescence of the probe itself ([1]; 1 μM, 0.1 M phosphate buffer pH 7.4, excitation 515 nm) | fluorescence intensity at 535 nm with increasing concentration of peroxynitrite ([2]; 1 μM probe, 0.1 M potassium phosphate buffer pH 7.4, data not shown) | fluorescence intensity after the addition of peroxynitrite ([2]; 1 μM probe, peroxynitrite 0-7 μM, 0.1 M potassium phosphate buffer pH 7.4, after 5 minutes, excitation 515 nm) |
| --- | --- | --- | --- | --- | --- | --- |
| CN(c1ccc(CCC(=O)C(F)(F)F)cc1)c1cc2c(cc1Cl)C1(OC(=O)c3ccccc31)c1cc(Cl)c(O)cc1O2 (stereo not drawn) [Compound 10] | non-fluorescent | increases linearly | increase significantly |  |  |  |
| CN(c1ccc(O)cc1)c1ccc2c(c1)Oc1cc(O)ccc1C21OC(=O)c2ccccc21 (stereo not drawn) [Compound 12] |  |  |  | non-fluorescent | increases linearly | increase significantly |

From US8114904B2, “Luminescence quenchers and fluorogenic probes for detection of reactive species” (Versitech Limited & Morningside Ventures Limited, priority 2008, dated 2012)
